pIC50: −log10 of the molar value. The source made the active and inactive calls. The rule behind the calls is not given here.
Columns and labels:
Homo sapiens [1] = organism: Homo sapiens; assay: Inhibition of TCEP-treated human SOD1 A4V mutant aggregation at 50 uM measured after 24 hrs by thioflavin-T fluorescence assay relative to control
Homo sapiens [2] = organism: Homo sapiens; assay: Inhibition of TCEP-treated human SOD1 G85R mutant aggregation at 50 uM measured after 24 hrs by thioflavin-T fluorescence assay relative to control
Homo sapiens [3] = organism: Homo sapiens; assay: Inhibition of TCEP-treated human SOD1 G93A mutant aggregation at 50 uM measured after 24 hrs by thioflavin-T fluorescence assay relative to control
[4] = (§1) Inhibition of TCEP-treated human SOD1 A4V mutant aggregation measured after 24 hrs by thioflavin-T fluorescence assay
Homo sapiens [5] = organism: Homo sapiens; assay: as §1
[6] = (§2) Inhibition of TCEP-treated human SOD1 G85R mutant aggregation measured after 24 hrs by thioflavin-T fluorescence assay
Homo sapiens [7] = organism: Homo sapiens; assay: as §2
[8] = (§3) Inhibition of TCEP-treated human SOD1 G93A mutant aggregation measured after 24 hrs by thioflavin-T fluorescence assay
Homo sapiens [9] = organism: Homo sapiens; assay: as §3
Homo sapiens [10] = organism: Homo sapiens; assay: Inhibition of TCEP-treated human SOD1 A4V mutant aggregation assessed as formation of few slender fibrils at 50 uM measured after 24 hrs by 1% uranyl acetate staining based transmission electron microscopy
Homo sapiens [11] = organism: Homo sapiens; assay: Inhibition of TCEP-treated human SOD1 G85R mutant aggregation assessed as formation of few slender fibrils at 50 uM measured after 24 hrs by 1% uranyl acetate staining based transmission electron microscopy
Homo sapiens [12] = organism: Homo sapiens; assay: Inhibition of TCEP-treated human SOD1 G93A mutant aggregation assessed as formation of few slender fibrils at 50 uM measured after 24 hrs by 1% uranyl acetate staining based transmission electron microscopy
Homo sapiens [13] = organism: Homo sapiens; assay: Inhibition of TCEP-treated human SOD1 A4V mutant aggregation assessed as size of protein at 50 uM measured after 24 hrs at 37 deg C by dynamic light scattering analysis (reference value: 154.4 nm)
Homo sapiens [14] = organism: Homo sapiens; assay: Inhibition of TCEP-treated human SOD1 G85R mutant aggregation assessed as size of protein at 50 uM measured after 24 hrs at 37 deg C by dynamic light scattering analysis (reference value: 151.1 nm)
Homo sapiens [15] = organism: Homo sapiens; assay: Inhibition of TCEP-treated human SOD1 G93A mutant aggregation assessed as size of protein at 50 uM measured after 24 hrs at 37 deg C by dynamic light scattering analysis (reference value: 84.38 nm)
N2a [16] = assay: Cytotoxicity against mouse Neuro2a cells over expressing hSOD1 G85R mutant assessed as reduction in cell viability up to 10 uM measured after 48 hrs by MTT assay; assay type: toxicity, cell-based
N2a [17] = assay: Cytotoxicity against mouse Neuro2a cells over expressing hSOD1 G85R mutant assessed as reduction in cell viability at 25 uM measured after 48 hrs by MTT assay; assay type: toxicity, cell-based
N2a [18] = assay: Protection against MG132-induced SOD1 aggregation-associated cytotoxicity in mouse Neuro2a cells over expressing hSOD1 G85R mutant assessed as increase in cell viability at 1 uM preincubated for 24 hrs followed by MG132 addition and measured after 24 hrs by MTT assay; assay type: functional, cell-based; details: time 48.0 hrs
N2a [19] = assay: Protection against MG132-induced SOD1 aggregation-associated cytotoxicity in mouse Neuro2a cells over expressing hSOD1 G85R mutant assessed as cell viability at 5 to 10 uM preincubated for 24 hrs followed by MG132 addition and measured after 24 hrs by MTT assay (reference value: 45%); assay type: functional; details: dose 5-10 µM, time 48 hrs
N2a [20] = assay: Protection against MG132-induced SOD1 aggregation-associated cytotoxicity in mouse Neuro2a cells over expressing hSOD1 G85R mutant assessed as restoration of cell viability by phase contrast microscopy; assay type: functional, cell-based
N2a [21] = assay: Protection against MG132-induced SOD1 aggregation-associated cytotoxicity in mouse Neuro2a cells over expressing hSOD1 G85R mutant assessed as restoration of normal morphology by phase contrast microscopy; assay type: functional, cell-based
N2a [22] = assay: Protection against MG132-induced SOD1 aggregation-associated apoptosis in mouse Neuro2a cells over expressing hSOD1 G85R mutant assessed as early apoptotic cells preincubated for 24 hrs followed by MG132 addition and measured after 24 hrs by Annexin V-APC/propidium iodide staining based flow cytometry (reference value: 1.41 %); assay type: functional; details: time 48 hrs
N2a [23] = assay: Protection against MG132-induced SOD1 aggregation-associated apoptosis in mouse Neuro2a cells over expressing hSOD1 G85R mutant assessed as late apoptotic cells preincubated for 24 hrs followed by MG132 addition and measured after 24 hrs by Annexin V-APC/propidium iodide staining based flow cytometry (reference value: 20.93 to 23.01 %); assay type: functional; details: time 48 hrs
N2a [24] = assay: Protection against MG132-induced SOD1 aggregation-associated apoptosis in mouse Neuro2a cells over expressing hSOD1 G85R mutant assessed as necrotic cells preincubated for 24 hrs followed by MG132 addition and measured after 24 hrs by Annexin V-APC/propidium iodide staining based flow cytometry (reference value: 2.23 %); assay type: functional; details: time 48 hrs
N2a [25] = assay: Protection against MG132-induced SOD1 aggregation-associated apoptosis in mouse Neuro2a cells over expressing hSOD1 G85R mutant assessed as upregulation of Bcl-2 expression preincubated for 24 hrs followed by MG132 addition and measured after 24 hrs by Western blot analysis; assay type: functional, cell-based; details: time 48.0 hrs
N2a [26] = assay: Protection against MG132-induced SOD1 aggregation-associated apoptosis in mouse Neuro2a cells over expressing hSOD1 G85R mutant assessed as upregulation of Xiap expression preincubated for 24 hrs followed by MG132 addition and measured after 24 hrs by Western blot analysis; assay type: functional, cell-based; details: time 48.0 hrs
N2a [27] = assay: Protection against MG132-induced SOD1 aggregation-associated oxidative stress in mouse Neuro2a cells over expressing hSOD1 G85R mutant assessed as reduction in ROS level at 10 uM preincubated for 24 hrs followed by MG132 addition and measured after 24 hrs by H2DCFDA dye based flow cytometry; assay type: functional, cell-based; details: time 48.0 hrs

With `CCn1c2ccccc2c2cc(NC(=O)NNC(=S)Nc3ccc(F)cc3)ccc21` the inhibition (Homo sapiens [1]) was 76.2%, the inhibition (Homo sapiens [2]) was 76.8% and the inhibition (Homo sapiens [3]) was 80.7%. The pIC50 [4] was 4.55, the inhibition (Homo sapiens [5]) was “Dose-dependent-effect” and the pIC50 [6] was 4.63. The inhibition (Homo sapiens [7]) was “Dose-dependent-effect”, the pIC50 [8] was 4.54 and the inhibition (Homo sapiens [9]) was “Dose-dependent-effect”. For the same compound, the inhibition (Homo sapiens [10]) was “Active; Displayed Better Reduction In Aggregate Formation Than Curcumin”, the inhibition (Homo sapiens [11]) was “Active; Displayed Better Reduction In Aggregate Formation Than Curcumin” and the inhibition (Homo sapiens [12]) was “Active; Displayed Better Reduction In Aggregate Formation Than Curcumin”. The Activity (Homo sapiens [13]) was 27.7 nm, the Activity (Homo sapiens [14]) was 26.4 nm and the Activity (Homo sapiens [15]) was 21.7 nm. The Activity (N2a [16]) was “Non-toxic”, the Activity (N2a [17]) was “Toxic” and the Activity (N2a [18]) was “inactive”. For the same compound, the Activity (N2a [19]) was 60%, the Activity (N2a [20]) was “Active” and the Activity (N2a [21]) was “Active”. It also gave an Activity (N2a [22]) of 1.19%, an Activity (N2a [23]) of 5.52% and an Activity (N2a [24]) of 2.13%. For the same compound, the Activity (N2a [25]) was “Active”, the Activity (N2a [26]) was “Active” and the Activity (N2a [27]) was “Active; Showed Better Reduction Compared To Curcumin”.

From ChEMBL document CHEMBL6114970, “Development of carbazole-based molecules for inhibition of mutant hSOD1 protein aggregation in Amyotrophic Lateral Sclerosis” (Bioorg Med Chem, 2025)
